Here are results for one compound from patent EP0642343B1, “Acridine carboxamides for the treatment of cancer” (XENOVA LIMITED, priority 1992, dated 1993).

Assay [1] deals with primary human melanoma cultures. Put plainly: cells. The settings on record: Homo sapiens, read-out: mean IC50. The protocol: Acridine carboxamide hydrochloride, synthesised in the Cancer Research Laboratory (Atwell G.J., et al., J.Med. Chem. 1987, 30, 664-669), and amsacrine isethionate, obtained from the Parke-Davis Division of the Warner-Lambert Company, Ann Arbor, USA, were dissolved in 50% v/v aqueous ethanol to make stock solutions of 2-5 mmol/l and stored at -20°C. Other cytotoxic drugs were available either from the NCI repository (Monks A., et al., J. Natl. Cancer Inst. 1991, 83, 757-766) or were obtained as described in Marshall E.S., et al., J. Natl. Cancer Inst. 1992, 84, 341-344 and Finlay, et al., Eur. J. Cancer din. Oncol. 1986, 22, 655-662. Cell lines were from the NCI repository except for MM-96 (Dr. R. Whitehead, Ludwig Institute, Melbourne, Australia), FME (Dr. K.M. Tveit, Norwegian Radium Hospital, Oslo, Norway) and Jurkat normal and multidrug-resistant lines (Dr. K. Snow and Dr. W. Judd, Department of Cellular and Molecular Biology, University of Auckland). Melanoma tissue was obtained from patients with pathologically confirmed metastatic and recurrent melanomas under Auckland Hospital Ethical Committee guidelines. Cells were released by digestion of tissue (at 50 mg.ml^-1) with collagenase (1 mg.ml^-1) and DNAase (50 µg.ml^-1) with continuous stirring at 37°C for 1 to 2 hours, and cultured as previously described (Marshall E.S., et al., J. Natl. Cancer Inst. 1992, 84, 341-344).
(§1) Tumour cell lines were cultured in 96-well plates. Growth of NCI cell lines was assessed using sulpho-rhodamine B staining (Skehan P., et al., J. Natl. Cancer Inst. 1990, 82, 1107-1112), that of the leukaemia lines with (4,5-dimethylthiazole-2-yl)-2,5-diphenyltetrazolium (MTT) staining (Mosmann T., J. Immun. Methods 1983, 65, 55-63) and that of the primary human tumour material by ^3H-thymidine incorporation (Marshall E.S., et al., J. Natl. Cancer Inst. 1992, 84, 341-344). Primary tumour material was cultured in 96-well plates in which the wells were coated with agarose to inhibit selectively the growth of normal cells. (Marshall E.S., et al., J. Natl. Cancer Inst. 1992, 84, 341-344). Primary cultures were incubated at 37°C in sealed perspex boxes containing a humidified atmosphere of 5% CO2 and 5% O2 in nitrogen for 7 days. 5-Methyl-[^3H]-thymidine (20 Ci.mmol^-1; 0.04 µCi per well), thymidine and 5-fluorodeoxyuridine (each at final concentrations of 0.5 µM) were added in medium to cultures (20 µl per well) 24 h before terminating the cultures. Cells were aspirated on to glass fibre filters using a multiple automated sample harvester (LKB Wallac OY Beta Harvester). The filter discs were washed for 15 seconds with water, dried, and the amount of tritium retained quantified by liquid scintillation.
(§2) IC50 values were defined as in Paull K.D., et al., J. Natl. Cancer Inst. 1989, 81:1088-1092, where growth, as indicated by staining or thymidine incorporation, corresponded to 50% of that of the control cultures. […] Variances of DELTA values were expressed as standard deviations in log10 units. Comparison of DELTA values was made using Pearson correlation coefficients. Resistance factors were defined as the ratios of IC50 values between the resistant line and the parent line. Statistical evaluation was performed either with NCI programmes, with RS/1 software (BBN Research Systems, Cambridge, MA, USA), or with Sigmaplot (Jandel Scientific, San Rafael, CA, USA).
DACA was also compared in a series of 12 primary melanoma cultures. Tissue was excised from human malignant melanomas and cultured using a modified 96-well assay system in which the cells were cultured on agarose and assayed for proliferation using the ^3H-thymidine incorporation assay as described in Marshall E.S., et al., J. Natl. Cancer Inst. 1992, 84, 341-344.

A further assay concerns B1D. Put plainly: Resistance factor, drug-resistant Jurkat leukaemia subline. The assay is classed as cell-based, human. The settings on record: B1D (from B1 by exposure to doxorubicin); ratio of IC50 resistant line / parent line. As for the experimental part:
as §1, §2
(§3) The effect of DACA on the growth of cultured cells was assessed by continuous drug exposure. […] Four multidrug-resistant cell lines, developed from JL and JB1 by in vitro exposure to increasing concentrations of doxorubicin (LD and B1D) or amsacrine (LA and B1A) (Finlay G.J., et al., J. Natl. Cancer Inst. 1990, 82, 662-667, Snow K., et al., Br. J. Cancer 1991, 63, 17-28) were tested.
(§4) DACA was compared with six other drugs including four topo II poisons, doxorubicin, mitozantrone, etopo-side and amsacrine. […]

The next assay relates to LD. The assay is described as above. The assay is classed as cell-based, human. The settings on record: LD (from L by exposure to doxorubicin); ratio of IC50 resistant line / parent line. The protocol: as §1, §2, §3, §4
Another assay deals with B1A. Described as above. Type of assay: cell-based, human. The settings on record: B1A (from B1 by exposure to amsacrine); ratio of IC50 resistant line / parent line. The protocol: as §1, §2, §3, §4
A further assay concerns LA. Described as above. The assay is classed as cell-based, human. The settings on record: LA (from L by exposure to amsacrine); ratio of IC50 resistant line / parent line. As for the experimental part: as §1, §2, §3, §4
Assay [2] concerns advanced colon 38 tumours. As to the kind of experiment: Tumour growth delay, advanced subcutaneous colon 38 tumours in mice. Type of assay: in vivo. The settings on record: maximum tolerated dose of the comparison drug. The protocol:
Colon 38 carcinoma was obtained from the Mason Research Institute (Worchester, MA, USA) and was grown in BDF1 hosts. Tumour fragments (1 mm^3) were implanted subcutaneously in anaesthetised mice. Tumours had grown to the appropriate size 9 days after implantation. A melanoma tumour line (WADH) was developed in the Cancer Research Laboratory. Tumour cells were grown in culture and 1 x 10^6 cells were implanted intradermally into the flank of nude (C57BI/J genetic background) mice. Mice were grown under sterile surroundings until tumours were of appropriate size.
Tumours were measured 3x (colon 38) or 2x (xeno-graft) weekly with callipers and tumour volumes calculated as 0.52a^2b, where a and b were the minor and major tumour axes. Tumour growth delays were measured at a time when tumour volumes of treated and control animals had increased by 4-fold.
The effects of five compounds, • (i) DACA • (ii) N-[2-(dimethylamino)ethyl]-9-methoxyphen-azine-1-carboxamide (compound 28 of J. Med. Chem., 1987, 30, 843-851), • (iii) N-[2-(dimethylamino) ethyl]-2-phenylquino-line-8-carboxamide (compound 6 of J. Med. Chem. 1988, 31, 1048-1052), • (iv) N-[2-(dimethylamino)ethyl]-2-(4-pyridyl)-guinoline-8-carboxamide (compound 18 of J. Med. Chem., 1989, 32, 396-401), and • (v) N-[2-(dimethylamino)ethyl]-9-bromo-dibenzo-[1,4]-dioxin-1-carboxamide (compound 20 of J. Med. Chem. 1992, 35, 258-266) on the growth of advanced colon 38 tumours in mice was investigated by implanting tumour fragments subcutaneously and allowing them to grow until they had reached a diameter of 5-8 mm.

Assay [3] has as its system panel of cell lines encompassing a number of tumour types. As to the kind of experiment: NCI cell line panel, growth inhibition by protein staining. Type of assay: cell-based. The settings on record: data provided by the National Cancer Institute. The protocol:
as §1, §2

Assay [4] concerns sublines of Jurkat leukaemia cells. Put plainly: Cross-resistance of Jurkat sublines selected for resistance to amsacrine. The assay is classed as cell-based, human. The settings on record: two lines selected for resistance to amsacrine. The protocol:
Two of these lines had been selected for resistance to amsacrine, and were more than 100-fold cross-resistant to amsacrine but only 2- to 4-fold cross-resistant to DACA. […] We believe that this ability to overcome resistance mechanisms accounts for the different IC50 patterns observed with the human cell line panels.
Tumour cell lines were cultured in 96-well plates. […] Primary cultures were incubated at 37°C in sealed perspex boxes containing a humidified atmosphere of 5% CO2 and 5% O2 in nitrogen for 7 days. 5-Methyl-[^3H]-thymidine (20 Ci.mmol^-1; 0.04 µCi per well), thymidine and 5-fluorodeoxyuridine (each at final concentrations of 0.5 µM) were added in medium to cultures (20 µl per well) 24 h before terminating the cultures.
1989, 81:1088-1092, where growth, as indicated by staining or thymidine incorporation, corresponded to 50% of that of the control cultures.

Another assay relates to human cell lines. As to the kind of experiment: Cytotoxicity under continuous drug exposure, mean over human cell lines. Type of assay: cell-based. The settings on record: read-out: mean IC50 value for human cell lines. The protocol:
The latter value compared with 2 µM for the 4-pyridyl-quinoline analogue, 0.76 µM for amsacrine, 0.1 µM for the amsacrine analogue 4'-(9-[4-[N-methylcarboxamido]-5-methyl]-acridinylamino)-methanesulphon-m-anisidide ("CI-921") and 81 µM for etoposide.

As a reminder, the IC50 is the concentration that inhibits the measured activity by half. With `COc1cc(NS(C)(=O)=O)ccc1Nc1c2ccccc2nc2ccccc12` [amsacrine], the IC50 in assay [1] was found to be 128 nM; in assay [3], 520 nM; in the assay on human cell lines it was 760 nM. Moreover, the Resistance factors in the assay on B1D was 8.8; in the assay with LD it was 110; in the assay with B1A, 240; in the assay on LA it was 130. The compound further displayed a Growth delay in [2] of 2 days. Further, the cross-resistance entry in [4] was “more than 100 fold”.
